Assay results as given in article PMC9899896, “Application of a new approach methodology (NAM)-based strategy for genotoxicity assessment of data-poor compounds” (Frontiers in Toxicology, 2023).
Where two headings read alike, the source gives them in different places.

Assays:
[1] = tested on: human lymphoblastoid TK6 cells; experiment: MultiFlow DNA Damage assay (γH2AX, p53, p-H3, polyploidy); type: cell-based; details: for MultiFlow summary classification (call and MoA): TK6 cells, 4H and 24H sampling; for MultiFlow MoA classification: GEF-based call, in at least one S9 condition; for MultiFlow biomarkers with responses: fold-increase over solvent control
Protocol: Treated cells were gently resuspended and 25 µL/well was mixed thoroughly with the labeling solution. The plate was incubated for 30 min at room temperature shielded from light.
The γH2AX and p53 endpoints were measured based on their median fluorescence intensity (i.e., mean channel fluorescence or MCF) relative to the DMSO solvent control. The p-H3 and polyploidy endpoints were measured based on their frequencies among all events (i.e., all 2n–4n and polyploidy (8n) DNA content). The equations for calculating γH2AX shift, nuclear p53 shift, % polyploidy, and % p-H3 positive events are shown below.
Latex microspheres were used as counting beads to determine nuclear density.
Litron developed Global Evaluation Factors (GEF) to identify a biologically significant increase in select biomarker levels.
A clastogenic or aneugenic call required two successive concentrations that met or exceeded the GEFs in at least 2 of the 4 respective MoA biomarkers. Chemicals that met or exceeded two GEFs in a single non-cytotoxic concentration were designated as “weak” responses. In cases where both clastogen and aneugen biomarkers exceeded the GEF the MoA was considered pan-genotoxic. In cases where less than two biomarkers met the GEFs, the call was non-genotoxic.

[2] = tested on: human lymphoblastoid TK6 cells; experiment: TGx-DDI transcriptomic biomarker classification (TempO-Seq S1500+) and BMC modeling; details: for TGx-DDI summary classification: TK6 cells, 4H exposure; for TGx-DDI classification: overall call from 2-DC, PCA, NSC-PA, S9 condition as in Figure 1; for Strength / consistency of TGx-DDI response (text): across concentrations and the three statistical analyses; for TGx-DDI BMC potency ranking (bootstrapped median gene BMC): BMR 1 standard deviation, compounds with concordant positive calls
[3] = tested on: human lymphoblastoid TK6 cells; experiment: Integrated NAM-based test strategy (TGx-DDI + MicroFlow + MultiFlow; ToxPi integration of BMCs); details: for Integrated hazard conclusion: from TGx-DDI, MicroFlow and MultiFlow calls; for ToxPi profile of multiplexed endpoint BMCs: six endpoints: TGx-DDI, MN, 4H/24H p53, 4H/24H ɣH2AX
[4] = tested on: human lymphoblastoid TK6 cells; experiment: In vitro MicroFlow assay (flow cytometry-based micronucleus test); details: for MicroFlow summary classification (MN induction): TK6 cells, 4H exposure, 24-h sampling; for MicroFlow %MN response (text): positive: >2.5 fold-increase in %MN and p < 0.05 vs vehicle
[5] = tested on: human lymphoblastoid TK6 cells; experiment: Viability assessment (propidium iodide fluorescence, flow cytometry); details: TK6 cells, ± S9, quantified at 24 h via propidium iodide
MN = details: cited from earlier work
[6] = tested on: structural chromosomal aberrations; details: cited from earlier work; for In vitro mammalian chromosomal aberration test result (OECD 473): SCCS
[7] = +S9 (rat liver S9), 3 h recovery

SMILES	TGx-DDI summary classification [2, 7]	TGx-DDI classification [2]	Strength / consistency of TGx-DDI response (text) [2]	TGx-DDI summary classification ([2]; -S9)	MultiFlow summary classification (call and MoA) ([1]; +S9)	MultiFlow summary classification (call and MoA) ([1]; -S9)	MultiFlow MoA classification [1]	MultiFlow biomarkers with responses [1]	Integrated hazard conclusion [3]	MicroFlow summary classification (MN induction) ([4]; +S9)	MicroFlow summary classification (MN induction) ([4]; -S9)	MicroFlow %MN response (text) [4]	further results
COc1cc([N+](=O)[O-])ccc1O [NSACB 6, 2-methoxy-4-nitrophenol]	-	non-DDI			-	-	non-genotoxic	moderate to robust response increase in one of the aneugenic biomarkers (i.e., 4H p-H3)	likely irrelevant positives in the MN test	+	+	robust fold-increase in %MN with a clear concentration-response relationship	
Cc1cc(C)n(CO)n1 [NSACB 3, 3,5-dimethylpyrazole-1-methanol]	+	DDI	weaker DDI responses		+ C	+ C	clastogens	4H p53 and 4H ɣH2AX	genotoxic in vitro, causing DNA damage via a clastogenic MoA	+	+	variable responses with a significant increase observed only at the highest concentration	Strength of MultiFlow biomarker response (text) [1]: more moderate responses
OC[C@@H](O)[C@@H](O)[C@H](O)[C@H](O)CO [DMANN, D-mannitol, reference compound]	-	non-DDI		-	-	-					-	not observed	Effect on cell viability [5]: no decrease in viability
CCCOCC(C)OCC(C)O (stereo not drawn) [NSACB 10, 1-(1-methyl-2-propoxyethoxy)-2-propanol]									likely irrelevant positives in the MN test				Effect on cell viability [5]: did not impact viability up to the highest concentration of 10 mM
C/C=C(/C)C(=O)O[C@H]1C(C)=C2[C@H]([C@@H]1OC(=O)CCCCCCC)[C@@](C)(OC(C)=O)C[C@H](OC(=O)CCC)[C@@]1(O)[C@H]2OC(=O)[C@@]1(C)O [thapsigargin]													MicroFlow MN result (MN): induce MN
O=[N+]([O-])c1cc(O)ccc1NCCCO [NSACB 9, 4-[(3-hydroxypropyl)amino]-3-nitrophenol]	+		moderate DDI response	+	+ C	+ C	clastogens	4H and 24H ɣH2AX	genotoxic in vitro, causing DNA damage via a clastogenic MoA	+	+	robust fold-increase in %MN with a clear concentration-response relationship	Chromosomal aberration test result ([6]; in the presence of S9, ref SCCP, 2007): induced structural chromosomal aberrations; In vitro mammalian chromosomal aberration test result (OECD 473) ([6]; ref SCCP, 2007, 2013): positive; Chromosomal aberration test result ([6]; without S9, ref SCCP, 2007): equivocal; Strength of MultiFlow biomarker response (text) ([1]; listed as 9): most robust increases; Strength of MultiFlow biomarker response (text) ([1]; listed as NSACB #9): strong fold-increases in clastogenic biomarkers (i.e., 4H and 24H ɣH2AX) in both S9 conditions

Second part, led by results:

TGx-DDI summary classification [2, 7]	TGx-DDI classification [2]	Strength / consistency of TGx-DDI response (text) [2]	TGx-DDI summary classification ([2]; -S9)	SMILES	MultiFlow summary classification (call and MoA) ([1]; +S9)	MultiFlow summary classification (call and MoA) ([1]; -S9)	MultiFlow MoA classification [1]	MultiFlow biomarkers with responses [1]	Integrated hazard conclusion [3]	MicroFlow summary classification (MN induction) ([4]; +S9)	MicroFlow summary classification (MN induction) ([4]; -S9)	MicroFlow %MN response (text) [4]	further results
+	DDI	weaker DDI responses		CCN(CC)c1cccc(O)c1 [NSACB 4, 3-diethylaminophenol]	+ C/A	+ C	pan-genotoxicant	clastogen biomarkers 4H p53 and 4H ɣH2AX, as well as aneugen marker 4H p-H3 and pan-genotoxic biomarker 24H p53	genotoxic in vitro, causing DNA damage via a clastogenic MoA				
	DDI		+	COc1cc([C@@H]2c3cc4c(cc3[C@@H](O[C@@H]3O[C@@H]5CO[C@@H](C)O[C@H]5[C@H](O)[C@H]3O)[C@H]3COC(=O)[C@H]23)OCO4)cc(OC)c1O [EPEG, Etoposide, reference compound]	+ C	+ C				+	+	significant fold-increases in %MN	TGx-DDI BMC potency ranking (bootstrapped median gene BMC) [2]: lowest median gene BMC; ToxPi profile of multiplexed endpoint BMCs [3]: most potent for five of the six endpoints examined
+	DDI across all concentrations	strongest responses		Nc1cccc(N)n1 [NSACB 5, 2,6-diaminopyridine]	+ C	+ C	clastogens	4H p53 and 4H ɣH2AX	genotoxic in vitro, causing DNA damage via a clastogenic MoA	+	+	robust fold-increase in %MN with a clear concentration-response relationship	Chromosomal aberration test result ([6]; continuous treatment (24H) without S9, ref SCCS, 2013): clastogenic; In vitro mammalian chromosomal aberration test result (OECD 473) ([6]; ref SCCP, 2007, 2013): positive; Chromosomal aberration test result ([6]; short-term (6H) treatment with S9, ref SCCS, 2013): clastogenic; Strength of MultiFlow biomarker response (text) ([1]; listed as 5): most robust increases; Strength of MultiFlow biomarker response (text) ([1]; listed as NSACB #5): strong response in clastogen-related biomarkers in both S9 conditions; TGx-DDI BMC potency ranking (bootstrapped median gene BMC) [2]: greatest median gene BMC; ToxPi profile of multiplexed endpoint BMCs [3]: almost no slices protruding from the center
+	DDI	weaker DDI responses		Cc1ccc(O)c(N)c1 [NSACB 2, 2-amino-4-methylphenol]	+ C	-	clastogens	4H ɣH2AX and 24H p53	genotoxic in vitro, causing DNA damage via a clastogenic MoA	+	+	variable responses with a significant increase observed only at the highest concentration	Strength of MultiFlow biomarker response (text) [1]: most robust increases
